PMC3628601, “Novel control of lactate dehydrogenase from the freeze tolerant wood frog: role of posttranslational modifications” (PeerJ, 2013)
Each block holds one compound with its values, some of them ahead of it.

Assays:
Format in all cases: biochemical, Lithobates sylvaticus
[1] = tested on: T1, muscle LDH, dehydrated (dehydrated LDH); assay: NADH production at […] nm, reverse reaction; settings: pH 8, 22 °C, 50 mM Tris
T1 construct: gene LDHA

[2] = tested on: T2, muscle LDH, control (control LDH); assay: NADH production at […] nm, reverse reaction; settings: pH 8, 22 °C, 50 mM Tris
T2 construct: gene LDHA

[3] = tested on: T2, muscle LDH, control (control LDH); assay: NADH consumption at […] nm, forward reaction; settings: pH 7, 22 °C, 50 mM Tris, saturating NADH (0.15 mM)
[4] = tested on: T1, muscle LDH, dehydrated (dehydrated LDH); assay: NADH consumption at […] nm, forward reaction; settings: pH 7, 22 °C, 50 mM Tris, saturating NADH (0.15 mM)
[5] = tested on: T1, muscle LDH, dehydrated (dehydrated LDH); assay: NADH absorbance at […] nm, forward reaction; settings: pH 7.0, 22 °C, 50 mM Tris, saturating NADH (0.15 mM); inhibition by excess substrate
[6] = tested on: T2, muscle LDH, control (control LDH); assay: NADH absorbance at […] nm, forward reaction; settings: pH 7.0, 22 °C, 50 mM Tris, saturating NADH (0.15 mM); inhibition by excess substrate

Km ([1]; saturating NAD (1 mM)): 5600 ± 500 µM
Km ([2]; saturating NAD (1 mM)): 11000 ± 640 µM
Compound: C[C@H](O)C(=O)O [L-lactate]

Km ([1]; saturating L-lactate (22.5 mM)): 640 ± 40 µM
Km ([2]; saturating L-lactate (22.5 mM)): 1380 ± 50 µM
Compound: NC(=O)c1ccc[n+]([C@@H]2O[C@H](COP(=O)(O)OP(=O)(O)OC[C@H]3O[C@@H](n4cnc5c(N)ncnc54)[C@H](O)[C@@H]3O)[C@@H](O)[C@H]2O)c1 [NAD]

Km [3]: 160 ± 10 µM
Km [4]: 130 ± 10 µM
Compound: CC(=O)C(=O)O [pyruvate]
Dehydrated [5]: 8.26 ± 0.76 mM
Control [6]: 7.93 ± 0.34 mM
